These results are taken from patent US20220184008A1, “MODULATORS OF INTRACELLULAR CHLORIDE CONCENTRATION” (FONDAZIONE ISTITUTO ITALIANO DI TECNOLOGIA, priority 2019, published 2022).

One assay concerns the target T1, NKCC2 (Homo sapiens, UniProt Q13621).
T1 construct: expressed in transfected cells; host or cells: HEK293
T1 sequence (Q13621 1-1099): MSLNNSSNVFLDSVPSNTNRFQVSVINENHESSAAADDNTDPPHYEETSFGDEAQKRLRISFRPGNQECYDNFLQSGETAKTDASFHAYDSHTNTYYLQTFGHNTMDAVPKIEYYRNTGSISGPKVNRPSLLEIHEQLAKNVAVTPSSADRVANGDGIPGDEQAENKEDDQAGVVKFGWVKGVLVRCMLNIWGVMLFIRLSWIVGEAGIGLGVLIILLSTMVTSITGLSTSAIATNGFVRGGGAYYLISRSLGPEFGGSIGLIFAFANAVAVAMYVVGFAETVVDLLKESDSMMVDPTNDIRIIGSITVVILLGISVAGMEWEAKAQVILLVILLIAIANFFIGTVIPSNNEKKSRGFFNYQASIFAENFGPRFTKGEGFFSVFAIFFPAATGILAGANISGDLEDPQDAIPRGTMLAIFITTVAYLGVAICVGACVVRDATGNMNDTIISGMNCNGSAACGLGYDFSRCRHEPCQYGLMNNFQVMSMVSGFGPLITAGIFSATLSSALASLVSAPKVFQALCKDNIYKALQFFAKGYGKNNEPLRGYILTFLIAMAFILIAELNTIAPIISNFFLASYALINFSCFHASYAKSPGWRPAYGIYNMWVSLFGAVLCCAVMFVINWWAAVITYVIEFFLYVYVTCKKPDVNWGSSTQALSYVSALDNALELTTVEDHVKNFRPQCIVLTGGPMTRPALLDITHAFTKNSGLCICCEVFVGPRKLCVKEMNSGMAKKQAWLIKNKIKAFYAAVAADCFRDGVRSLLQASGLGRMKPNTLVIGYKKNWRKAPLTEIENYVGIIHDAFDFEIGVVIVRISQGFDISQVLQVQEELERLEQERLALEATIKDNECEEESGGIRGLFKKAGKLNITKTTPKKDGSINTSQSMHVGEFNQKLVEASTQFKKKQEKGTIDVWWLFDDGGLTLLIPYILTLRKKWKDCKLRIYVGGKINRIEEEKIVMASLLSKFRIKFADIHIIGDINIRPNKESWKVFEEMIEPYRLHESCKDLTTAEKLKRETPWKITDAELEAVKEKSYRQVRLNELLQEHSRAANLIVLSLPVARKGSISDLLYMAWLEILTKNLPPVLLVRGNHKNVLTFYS
In words: Thallium-based assay in NKCC2-transfected HEK293 cells. The format is cell-based. The settings on record: for inhibition at 10 µM: NKCC2-transfected HEK293, Table 2. An excerpt:
The Thallium-based assay is a standard assay used to measure activity of potassium transporters, like NKCC2 which is a sodium potassium and chloride co-transporter. The assay consists on the monitoring of the cells upon the application of thallium (which mimic K^+) and consequently NaCl, which entering into cells by NKCC2, activated by the presence of the chloride ions, binds the fluorescent dye, thus determining a fluorescence increase. This assay involves parallel testing in 96 wells for a quick and easy drug screening. In detail, kidney epithelial cells (HEK293) were transfected with NKCC2 transporters, or a mock construct (control). After two days, the cells were loaded with a thallium-sensitive fluorescent dye in a Cl-free medium. After 1 hour of incubation, the inhibitory activity of bumetanide and furosemide (as positive controls) and the new compounds by monitoring fluorescence upon application of thallium (to mimic K) and subsequently NaCl were tested. When entering cells by NKCC2 (activated by the presence of Cl), thallium binds the fluorescent dye and increases fluorescence. […] A decreased fluorescence in the mock-transfected cells treated with bumetanide and furosemide was observed. […] This latter result was used to normalize the fluorescence measurements obtained with the assay. In particular, the ΔF/F0 value of the mock-transfected cells (both control and treated) was subtracted from the respective ΔF/F0 value of the cells transfected with the Cl transporters. With this assay, the novel chemical entities were tested for their ability to block NKCC2 (Results in Table 2).
The arrow indicates the addition of thallium (final concentration 2 mM) and NaCl stimulus (135 mM) used to initiate the flux assay. b) Quantification of the effect of bumetanide, furosemide and 3 example compounds (3.8, 3.13, 3.17) in the thallium-based assay on NKCC2-transfected HEK293 cells. Data represents mean±sem from 5 independent experiments, and they are represented as % of the controls. *P<0.05, **P<0.01, ***P<0.001 Kruskal-Wallis Anova (Dunn's Post hoc Test); ###P<0.001 two-tailed unpaired Student t-test.

Another assay deals with NKCC1. Description: Calcium kinetic assay in primary cultures of immature hippocampal neurons. The format is cell-based. The following applies: for NKCC1 Inhibition % 10 μM Neurons Calcium kinetic assay: immature neurons 3 DIV. Here is the method:
FIG. 2: In vitro testing of the NKCC1 inhibitors in a calcium kinetic assay. a) Example traces of fluorescence levels upon application of GABA (100 μM) and KCl (90 mM) used to trigger calcium influx in primary neuronal cultures treated after 3 days in culture (3 DIV) with vehicle, bumetanide, furosemide and compounds 3.8, 3.13 and 3.17 in the calcium kinetic assay. b) Quantification of the average fluorescence increase upon GABA application normalized to the increase upon KCl application in neurons treated with bumetanide, furosemide and 3 exemplary compounds (3.8, 3.13, 3.17) (10 μM, 100 μM). Data represents mean±sem from 5 independent experiments, and they are presented as % of the control. *P<0.05, **P<0.01, ***P<0.001 Kruskal-Wallis Anova (Dunn's Post hoc Test).
Next, the compounds of the invention were tested for their ability to revert the depolarizing GABAergic signaling in immature neurons. This effect was indirectly measured as calcium influx into the cells with an in vitro calcium kinetic assay in primary cultures of hippocampal neurons. The calcium kinetic assay exploits the physiological, endogenous, high expression of NKCC1 in immature neurons, which causes depolarizing actions of GABA and can activate voltage-gated Ca^2+ channels. Thus, in immature neurons, a compound that blocks NKCC1 is predicted to inhibit Ca^2+ responses upon GABA application. Immature neurons were cultured for 3 days in vitro (3 DIV) and loaded for 15 min with a calcium-sensitive dye (Fluo4). Then, the neurons were treated with bumetanide and furosemide (as positive controls) or with each of the selected compounds for 15 min. As a functional readout, the fluorescence level was monitored in these cultures before and after application of GABA (100 μM, for 20 sec). To test for neuronal viability at the end of the experiment, KCl was applied (90 mM, for 40 sec), which strongly depolarizes neurons, causing high activation of voltage-gated Ca^2+ channels in live cells. To quantify how bumetanide, furosemide, and selected compounds influenced NKCC1 inhibition, the fluorescence values were normalized upon GABA application to the fluorescence levels upon KCl application in treated neurons.

Turning to `CCCCNc1cc(C(=O)O)cc(S(N)(=O)=O)c1Oc1ccccc1` [Bumetanide, reference compound], testing at 10 µM against NKCC2 gave an inhibition of 99%. The “ion flux and consequent increase in fluorescence in NKCC2-transfected cells” value on NKCC2 (pre-incubation 10 μM) is “significantly reduced”. Also, the “NKCC1 Inhibition % 10 μM Neurons Calcium kinetic assay” value in the assay on NKCC1 (Table 1) and in the assay with NKCC1 (Table 2) was 52% each time. Besides, the “fluorescence increase upon GABA application compared with vehicle (DMSO)-treated controls” value in the assay on NKCC1 (GABA 100 μM, normalized to KCl) is “significantly reduced”. Consider `CCCCNc1ccc([N+](=O)[O-])cc1S(N)(=O)=O` [Compound 1.6, 2-(butylamino)-5-nitro-benzenesulfonamide], for which, at NKCC2, the inhibition (in general, the percentage by which the read-out fell short of the control) at 10 µM was 4%. At NKCC2, `CCCCCCNc1ccc([N+](=O)[O-])cc1S(N)(=O)=O` [Compound 1.7, 2-(hexylamino)-5-nitro-benzenesulfonamide] registered an inhibition at 10 µM of 10%. The “NKCC1 Inhibition % 10 μM Neurons Calcium kinetic assay” value in the assay with NKCC1 (Table 1) and in the assay with NKCC1 (Table 2) was 36% each time. Molecule `CCCCCCCCNc1ccc([N+](=O)[O-])cc1S(N)(=O)=O` [Compound 1.8, 5-nitro-2-(octylamino)benzenesulfonamide] yielded an inhibition at 10 µM at NKCC2 of 10%. `CC(C)(C)CCNc1ccc([N+](=O)[O-])cc1S(N)(=O)=O` [Compound 1.9, 2-(3,3-dimethylbutylamino)-5-nitro-benzenesulfonamide] yielded an inhibition at 10 µM against NKCC2 of 0%. Molecule `CCCCNc1ccc([N+](=O)[O-])cc1S(=O)(=O)NC` [Compound 1.10, 2-(butylamino)-N-methyl-5-nitro-benzenesulfonamide] showed an inhibition at 10 µM against NKCC2 of 0%.

Take `CCCCCCNc1ccc([N+](=O)[O-])cc1S(=O)(=O)NC` [Compound 1.11, 2-(hexylamino)-N-methyl-5-nitro-benzenesulfonamide]: the inhibition at 10 µM against NKCC2 is 0%. Take `CCCCCCCCNc1ccc([N+](=O)[O-])cc1S(=O)(=O)NC` [Compound 1.12, N-methyl-5-nitro-2-(octylamino)benzenesulfonamide]: on NKCC2, at 10 µM the inhibition was 0%.

In the case of `CNS(=O)(=O)c1cc([N+](=O)[O-])ccc1NCCC(C)(C)C` [Compound 1.13, 2-(3,3-dimethylbutylamino)-N-methyl-5-nitro-benzenesulfonamide], testing at 10 µM on NKCC2 gave an inhibition of 0%. `CCCCNc1ccc([N+](=O)[O-])cc1S(=O)(=O)N(C)C` [Compound 1.14, 2-(butylamino)-N,N-dimethyl-5-nitro-benzenesulfonamide] registered an inhibition at 10 µM at NKCC2 of 0%. `CCCCCCNc1ccc([N+](=O)[O-])cc1S(=O)(=O)N(C)C` [Compound 1.15, 2-(hexylamino)-N,N-dimethyl-5-nitro-benzenesulfonamide] returned an inhibition at 10 µM against NKCC2 of 0%. `CCCCCCCCNc1ccc([N+](=O)[O-])cc1S(=O)(=O)N(C)C` [Compound 1.16, N,N-dimethyl-5-nitro-2-(octylamino)benzenesulfonamide]: the inhibition at 10 µM against NKCC2 was 0%. As for `CN(C)S(=O)(=O)c1cc([N+](=O)[O-])ccc1NCCC(C)(C)C` [Compound 1.17, 2-(3,3-dimethylbutylamino)-N,N-dimethyl-5-nitro-benzenesulfonamide], the inhibition at 10 µM on NKCC2 is 13%.

Turning to `CCCCNc1cc(Cl)c(C(=O)O)cc1S(N)(=O)=O` [Compound 2.2, 4-(butylamino)-2-chloro-5-sulfamoyl-benzoic acid], the inhibition at 10 µM against NKCC2 came to 0%. Moreover, the “NKCC1 Inhibition % 10 μM Neurons Calcium kinetic assay” value in the assay with NKCC1 (Table 1) and in the assay on NKCC1 (Table 2) was 2% throughout. On to `CCCCCCNc1cc(Cl)c(C(=O)O)cc1S(N)(=O)=O` [Compound 2.3, 2-chloro-4-(hexylamino)-5-sulfamoyl-benzoic acid], for which the inhibition at 10 µM against NKCC2 stood at 14%. The molecule `CCCCCCCCNc1cc(Cl)c(C(=O)O)cc1S(N)(=O)=O` [Compound 2.4, 2-chloro-4-(octylamino)-5-sulfamoyl-benzoic acid] registered an inhibition at 10 µM against NKCC2 of 16%. In turn, `CC(C)(C)CCNc1cc(Cl)c(C(=O)O)cc1S(N)(=O)=O` [Compound 2.5, 2-chloro-4-(3,3-dimethylbutylamino)-5-sulfamoyl-benzoic acid] had an inhibition at 10 µM on NKCC2 of 0%.

Take `CCCCNc1ccc(C(=O)O)cc1S(N)(=O)=O` [Compound 2.6, 4-(butylamino)-3-sulfamoyl-benzoic acid]: the inhibition at 10 µM against NKCC2 worked out at 0%. The “NKCC1 Inhibition % 10 μM Neurons Calcium kinetic assay” value in the assay with NKCC1 (Table 1) and in the assay with NKCC1 (Table 2) was 14% in each case.

`CCCCCCNc1ccc(C(=O)O)cc1S(N)(=O)=O` [Compound 2.7, 4-(hexylamino)-3-sulfamoyl-benzoic acid] returned an inhibition at 10 µM against NKCC2 of 0%. Also, the “NKCC1 Inhibition % 10 μM Neurons Calcium kinetic assay” value in the assay with NKCC1 (Table 1) and in the assay on NKCC1 (Table 2) was 10% each time. In the case of `CCCCCCCCNc1ccc(C(=O)O)cc1S(N)(=O)=O` [Compound 2.8, 4-(octylamino)-3-sulfamoyl-benzoic acid], the inhibition at 10 µM against NKCC2 stood at 0%. Further, the “NKCC1 Inhibition % 10 μM Neurons Calcium kinetic assay” value in the assay on NKCC1 (Table 1) and in the assay with NKCC1 (Table 2) was 3% each time.

Molecule `CC(C)(C)CCNc1ccc(C(=O)O)cc1S(N)(=O)=O` [Compound 2.9, 4-(3,3-dimethylbutylamino)-3-sulfamoyl-benzoic acid] came in with an inhibition at 10 µM against NKCC2 of 23%. Also, the “NKCC1 Inhibition % 10 μM Neurons Calcium kinetic assay” value in the assay with NKCC1 (Table 1) and with NKCC1 (Table 2) was 25% each time. Take `CCCCNc1ccc(C(=O)O)cc1S(=O)(=O)NC` [Compound 3.6, 4-(butylamino)-3-(methylsulfamoyl)benzoic acid]: the inhibition at 10 µM against NKCC2 was determined as 22%. The “NKCC1 Inhibition % 10 μM Neurons Calcium kinetic assay” value in the assay with NKCC1 (Table 1) and in the assay with NKCC1 (Table 2) was 6% throughout.
